# Test results as given in patent publication US20160271126A1, “PHARMACEUTICAL COMPOSITION” (Hoffmann-La Roche Inc., priority 2013, published 2016).
# Columns and labels:
# Solubility of bitopertin = format: physicochemical
# From the text: (§1) Being a BCS 2 molecule (according to the Biopharmaceutics Classification System, wherein the molecule has high permeability and low solubility), the API particles size distribution has been identified as a major critical quality attribute of the drug substance. […] Thus, micronized API was selected for development of a suitable formulation.
# [1] = Biopharmaceutics Classification System class; format: physicochemical; design: key: 2: the molecule has high permeability and low solubility
# From the text: as §1
smiles,measurement,setting,value
C[C@H](Oc1ccc(S(C)(=O)=O)cc1C(=O)N1CCN(c2ncc(C(F)(F)F)cc2F)CC1)C(F)(F)F [Bitopertin],solubility in aqueous buffers and in water,Solubility of bitopertin; aqueous buffers and water,practically insoluble
same,solubility in polar organic solvents,Solubility of bitopertin; polar organic solvents,freely soluble
same,BCS class (Biopharmaceutics Classification System),[1],2
